Data from patent publication US20180353483A1, “PHARMACEUTICAL COMPOSITIONS AND METHODS FOR INDOLEAMINE, 2, 3-DIOXYGENASE INHIBITION AND INDICATIONS THEREFOR” (Incyte Corporation, priority 2015, published 2018).
Where two headings read alike, the source gives them in different places.

Assay: Pharmacokinetics of Compound 1 in combination with MK-3475 in subjects with various cancers
Type: in vivo, human
Experimental: The subjects were not limited to a specific cancers and study include subjects with various cancers. […] One treatment cycle consisted of 21 days. […] Additional subjects were enrolled in a cohort to achieve the minimum of 3 evaluable subjects if dropouts or dose interruptions or reductions occur that result in a subject being non-evaluable for DLTs. […] An additional safety cohort was opened at 100 mg BID in parallel to 300 mg BID being tested. This may also be limited to subjects with melanoma, NSCLC, or specific cancer types from among those included in Phase 1. The RP2D was selected from the evaluated safety expansions.
If a dose was missed by more than 4 hours, that dose was skipped and was resumed at the scheduled time.
Pharmacokinetic samples were obtained at the visits of Cycle 1 Day 1, Cycle 1 Day 8 and Cycle 2 Day 1. […] The exact date and time of the PK blood draws were recorded in the eCRF along with the date and time of the last dose of study drug and details of the last meal preceding the blood draw.
The planned PK time points were used for preliminary PK analyses.

[1] = by dose, 25 mg, first dose, geometric mean
[2] = by dose, 25 mg, first dose, mean ± SD
[3] = by dose, 50 mg BID, steady state C1D8, mean ± SD
[4] = by dose, 100 mg BID, steady state C1D8, mean ± SD
[5] = by dose, 100 mg, first dose, geometric mean

For NS(=O)(=O)NCCNc1nonc1C(=NO)Nc1ccc(F)c(Br)c1 [Compound 1, 4-({2-[(aminosulfonyl)amino]ethyl}amino)-N-(3-bromo-4-fluorophenyl)-N′-hydroxy-1,2,5-oxadiazole-3-carboximidamide], the tmax (Diagnosis TNBC, steady state C1D8, median) was 2.00 h, the CL/F (Dose Reduction By C4D1 subjects (Table 13), steady state C1D8, mean ± SD) was 28.4 ± 11.1 L/h and the tmax (Dose Reduction By C4D1 subjects (Table 13), steady state C1D8, median) was 2.00 h. The CL/F (by dose, 25 mg BID, steady state C1D8, mean ± SD) was 46.2 ± 8.91 L/h, the tmax (by dose, 25 mg BID, steady state C1D8, median) was 1.00 h and the AUC(0-t) [1] was “(0.650) μM * h”. For the same compound, the Cmax [1] was 199 nM, the AUC(0-t) [2] was 0.711 ± 0.349 µM·h and the Cmax [2] was 231 ± 151 nM. The tmax (by dose, 25 mg, first dose, median) was 2.00 h, the Cmax (by dose, 50 mg BID, steady state C1D8, geometric mean) was 452 nM and the CL/F [3] was 68.8 ± 29.0 L/h. It also gave a Cmax [3] of 502 ± 237 nM, a tmax (by dose, 50 mg BID, steady state C1D8, median) of 2.00 h and a Cmax (by dose, 50 mg, first dose, geometric mean) of 500 nM. It also gave a Cmax (by dose, 50 mg, first dose, mean ± SD) of 537 ± 217 nM, a tmax (by dose, 50 mg, first dose, median) of 2.00 h and a Cmax (by dose, 100 mg BID, steady state C1D8, geometric mean) of 806 nM. The CL/F [4] was 69.1 ± 28.9 L/h, the Cmax [4] was 917 ± 424 nM and the tmax (by dose, 100 mg BID, steady state C1D8, median) was 2.00 h. For the same compound, the AUC(0-t) [5] was “(2.32) μM * h”, the Cmax [5] was 719 nM and the Cmax (by dose, 100 mg, first dose, mean ± SD) was 803 ± 378 nM. It also gave a tmax (by dose, 100 mg, first dose, median) of 2.00 h, a Cmax (by dose, 300 mg BID, steady state C1D8, geometric mean) of 2510 nM and a CL/F (by dose, 300 mg BID, steady state C1D8, mean ± SD) of 64.9 ± 22.7 L/h. The tmax (by dose, 300 mg BID, steady state C1D8, median) was 2.00 h, the Cmax (by dose, 300 mg, first dose, geometric mean) was 2020 nM and the Cmax (by dose, 300 mg, first dose, mean ± SD) was 2290 ± 1230 nM. For the same compound, the tmax (by dose, 300 mg, first dose, median) was 2.00 h, the Cmax (human, plasma, oral, 25 mg, Cohort 1, 25 mg BID, steady state C1D8, geometric mean) was 276 nM and the AUC(0-t) (human, plasma, oral, 25 mg, Cohort 1, 25 mg BID, steady state C1D8, geometric mean, read-out: AUC0-12 h (converted)) was 1.25 µM·h. It also gave a Cmax (human, plasma, oral, 25 mg, Cohort 1, 25 mg BID, steady state C1D8, mean ± SD) of 307 ± 150 nM, an AUC(0-t) (human, plasma, oral, 25 mg, Cohort 1, 25 mg BID, steady state C1D8, mean ± SD, read-out: AUC0-12 h (converted)) of 1.27 ± 0.23 µM·h and a Cmax (human, plasma, oral, 25 mg, by dose, 25 mg BID, steady state C1D8, geometric mean) of 276 nM. The AUC(0-t) (human, plasma, oral, 25 mg, by dose, 25 mg BID, steady state C1D8, geometric mean, read-out: AUC0-12 h (converted)) was 1.25 µM·h, the Cmax (human, plasma, oral, 25 mg, by dose, 25 mg BID, steady state C1D8, mean ± SD) was 307 ± 150 nM and the AUC(0-t) (human, plasma, oral, 25 mg, by dose, 25 mg BID, steady state C1D8, mean ± SD, read-out: AUC0-12 h (converted)) was 1.27 ± 0.23 µM·h. The Cmax (human, plasma, oral, 50 mg, Cohort 2, 50 mg BID, steady state C1D8, geometric mean) was 550 nM, the AUC(0-t) (human, plasma, oral, 50 mg, Cohort 2, 50 mg BID, steady state C1D8, geometric mean, read-out: AUC0-12 h (converted)) was 2.34 µM·h and the Cmax (human, plasma, oral, 50 mg, Cohort 2, 50 mg BID, steady state C1D8, mean ± SD) was 603 ± 227 nM. For the same compound, the AUC(0-t) (human, plasma, oral, 50 mg, Cohort 2, 50 mg BID, steady state C1D8, mean ± SD, read-out: AUC0-12 h (converted)) was 2.53 ± 1.02 µM·h, the AUC(0-t) (human, plasma, oral, 50 mg, Cohort 2, 50 mg, first dose, geometric mean, read-out: AUC0-t) was 1.53 µM·h and the Cmax (human, plasma, oral, 50 mg, Cohort 2, 50 mg, first dose, mean ± SD) was 574 ± 216 nM. The AUC(0-t) (human, plasma, oral, 50 mg, Cohort 2, 50 mg, first dose, mean ± SD, read-out: AUC0-t) was 1.6 ± 0.507 µM·h, the Cmax (human, plasma, oral, 50 mg, Cohort 4 (MEL), 50 mg BID, steady state C1D8, geometric mean) was 403 nM and the AUC(0-t) (human, plasma, oral, 50 mg, Cohort 4 (MEL), 50 mg BID, steady state C1D8, geometric mean, read-out: AUC0-12 h (converted)) was 1.58 µM·h. It also gave a Cmax (human, plasma, oral, 50 mg, Cohort 4 (MEL), 50 mg BID, steady state C1D8, mean ± SD) of 442 ± 232 nM, an AUC(0-t) (human, plasma, oral, 50 mg, Cohort 4 (MEL), 50 mg BID, steady state C1D8, mean ± SD, read-out: AUC0-12 h (converted)) of 1.77 ± 1.12 µM·h and a tmax (human, plasma, oral, 50 mg, Cohort 4 (MEL), 50 mg BID, steady state C1D8, median, read-out: tmax) of 1.5 h. For the same compound, the AUC(0-t) (human, plasma, oral, 50 mg, Cohort 4 (MEL), 50 mg, first dose, geometric mean, read-out: AUC0-t) was 1.2 µM·h, the AUC(0-t) (human, plasma, oral, 50 mg, Cohort 4 (MEL), 50 mg, first dose, mean ± SD, read-out: AUC0-t) was 1.32 ± 0.698 µM·h and the Cmax (human, plasma, oral, 50 mg, Cohort 4 (MEL), first dose, geometric mean) was 474 nM. For the same compound, the Cmax (human, plasma, oral, 50 mg, Cohort 4 (MEL), first dose, mean ± SD) was 512 ± 224 nM, the AUC(0-t) (human, plasma, oral, 50 mg, by dose, 50 mg BID, steady state C1D8, geometric mean, read-out: AUC0-12 h (converted)) was 1.83 µM·h and the AUC(0-t) (human, plasma, oral, 50 mg, by dose, 50 mg BID, steady state C1D8, mean ± SD, read-out: AUC0-12 h (converted)) was 2.05 ± 1.12 µM·h. It also gave an AUC(0-t) (human, plasma, oral, 50 mg, by dose, 50 mg, first dose, geometric mean, read-out: AUC0-t) of 1.33 µM·h, an AUC(0-t) (human, plasma, oral, 50 mg, by dose, 50 mg, first dose, mean ± SD, read-out: AUC0-t) of 1.43 ± 0.63 µM·h and a Cmax (human, plasma, oral, 50 mg, subjects with dose reduction before C4D1, 50 mg BID, C1D8, geometric mean) of 519 nM. The Cmax (human, plasma, oral, 50 mg, subjects with dose reduction before C4D1, 50 mg BID, C1D8, mean ± SD) was 557 ± 260 nM and the Cmax (human, plasma, oral, 100 mg BID, All diagnoses, steady state C1D8, geometric mean) was 1010 nM.
